Source: ChEMBL document CHEMBL1150970, “Starfish saponins. 55. Isolation, structure elucidation, and biological activity of the steroid oligoglycosides from an Antarctic starfish of the family Asteriidae” (J Nat Prod, 1998)

Assay: Cytotoxicity against human NSCLC-L16 cells
Assay type: functional, cell-based

Row | SMILES | IC50 [µg/mL]
1 | CC(C)CC(=O)C[C@](C)(O)[C@H]1CC[C@H]2[C@@H]3C[C@H](O[C@@H]4O[C@H](C)[C@@H](O)[C@H](O[C@@H]5O[C@H](C)[C@@H](O[C@@H]6O[C@H](CO)[C@H](O)[C@H](O)[C@H]6O[C@@H]6O[C@H](C)[C@H](O)[C@H](O[C@@H]7O[C@H](CO)[C@H](O)[C@H](O)[C@H]7O)[C@H]6O)[C@H](O)[C@H]5O[C@@H]5O[C@H](C)[C@@H](O)[C@H](O)[C@H]5O)[C@H]4C)[C@H]4C[C@@H](OS(=O)(=O)[O-])CC[C@]4(C)C3=CC[C@@]21C.[Na+] [ASTERIIDOSIDE A] | > 30
2 | C=C(CC[C@](C)(O)[C@H]1CC[C@H]2[C@@H]3C[C@H](O[C@@H]4O[C@H](C)[C@@H](O)[C@H](O[C@@H]5OC[C@@H](O[C@@H]6O[C@H](C)[C@H](O)[C@H](O)[C@H]6O[C@@H]6OC[C@H](O)[C@H](O[C@@H]7O[C@H](CO)[C@H](O)[C@H](O)[C@H]7O)[C@H]6O)[C@H](O)[C@H]5O[C@@H]5O[C@H](C)[C@@H](O)[C@H](O)[C@H]5O)[C@H]4C)[C@H]4C[C@@H](OS(=O)(=O)[O-])CC[C@]4(C)C3=CC[C@@]21C)C(C)C.[Na+] [ASTERIIDOSIDE D] | 11.4
3 | CC(C)=CCC[C@](C)(O)[C@H]1CC[C@H]2[C@@H]3C[C@H](O[C@@H]4O[C@H](C)[C@@H](O)[C@H](O[C@@H]5OC[C@@H](O[C@@H]6O[C@H](C)[C@H](O)[C@H](O)[C@H]6O[C@@H]6OC[C@H](O)[C@H](O[C@@H]7O[C@H](CO)[C@H](O)[C@H](O)[C@H]7O)[C@H]6O)[C@H](O)[C@H]5O[C@@H]5O[C@H](C)[C@@H](O)[C@H](O)[C@H]5O)[C@H]4C)[C@H]4C[C@@H](OS(=O)(=O)[O-])CC[C@]4(C)C3=CC[C@@]21C.[Na+] [ASTERIIDOSIDE E] | 18.1
4 | C[C@@H](C/C=C/[C@@H](C)[C@H]1[C@@H](O)[C@@H](O)[C@@H]2[C@]1(C)CC[C@@H]1[C@@]3(C)CC[C@H](O[C@@H]4OC[C@@H](O)[C@H](O)[C@H]4O)C[C@@H]3[C@@H](O)C[C@]12O)CO[C@@H]1OC[C@@H](O)[C@H](O)[C@H]1O [ASTERIIDOSIDE F] | > 30
5 | CC(C)[C@H](/C=C/[C@@H](C)[C@H]1C[C@@H](O)[C@@H]2[C@]1(C)CC[C@@H]1[C@@]3(C)CC[C@H](O[C@@H]4OC[C@@H](O)[C@H](O)[C@H]4O)C[C@@H]3[C@@H](O)[C@@H](O)[C@]12O)O[C@@H]1OC[C@@H](O)[C@H](OS(=O)(=O)[O-])[C@H]1O.[Na+] [ASTERIIDOSIDE I] | > 30
6 | CC(C)[C@@H](/C=C/[C@@H](C)[C@H]1C[C@H](O)[C@@H]2[C@]1(C)CC[C@@H]1[C@@]3(C)CC[C@H](O[C@@H]4OC[C@@H](O)[C@H](O)[C@H]4O)C[C@@H]3[C@H](O)C[C@]12O)COS(=O)(=O)[O-].[Na+] [ASTERIIDOSIDE L] | > 30
